{"source": "patent US20170290820A1", "about": "“METHODS AND COMPOSITIONS FOR TREATING BETA-THALASSEMIA AND SICKLE CELL DISEASE” (Academia Sinica, priority 2013, published 2017)", "key": {"p38": {"tested_on": "p38", "assay": "p38 phosphorylation by western blot", "assay_type": "cell-based, human", "settings": "FIG. 5; western blot p-p38/p38, at IC50", "method": "FIG. 5 is a graph showing the phosphorylation status of p38 in primary erythroid cells treating with HU, NaB, S51021, or SS-2394. Upper panel: For detection of the phosphorylation status of p38, twenty microgram of total cell lysate extracted from the primary human erythroid cells treated with HU (145.9 μM), NaB (221.6 μM), S51021 (21.8 μM) or SS-2394 (2.3 μM) was analyzed by Western blot analysis using antibody against p-p38 or p38. Lower panel: The signal intensity was quantified by an image-analyzing software. The intensity of p-p38 levels of mock control cells was set as 1. Data are shown as the mean±SEM, N=5.\n(§1) After 3 days of compound treatment, total protein or histone of the drug-treated cells was extracted. Histone was extracted by histone extraction buffer (10 mM HEPES, 1.5 mM MgCl2, 10 mM KCl, 0.5 mM DTT, 1.5 mM PMSF and 0.2 N HCl) at 4° C. overnight then centrifuged at 13,000 rpm for 5 minutes and collected the supernatant. Thirty microgram of histone extracts were separated in 15% SDS-PAGE and blotted onto PVDF membrane. After blocking with 5% non-fat milk in TBST, the membrane was then incubated with primary antibody against total histone H4 or total acetyl histone H4 at 4° C. overnight. […]"}, "histone H4": {"tested_on": "histone H4", "assay": "histone H4 acetylation by western blot", "assay_type": "cell-based, human", "settings": "FIG. 6; for global acetylation status of histone H4 (total acH4): at IC50, 3 days", "from_the_text": "FIG. 6 is a graph showing the acetylation status of histone H4 in primary erythroid cells treating with HU, NaB, S51021 or SS-2394. […] Total histones were extracted by histone extraction buffer. Thirty microgram of histone extract was used for western blot analysis and immunobloted with antibody against histone H4 or acetylated histone H4. Lower panel: The signal intensity was quantified by an image-analyzing software. The intensity of mock control was set as 1. Data are shown as the mean±SEM, N=4.\nas §1, with “overnight. Total protein was extracted by modified RIPA (50 mM Tris-HCl pH7.8, 150 mM NaCl, 1% NP-40, 0.5% sodium deoxycholate, 0.1% SDS, 1 mM EGTA, 5 mM EDTA, 10 mM NaF, 1 mM NaV3O4 and 1× complete, EDTA-free Protease Inhibitor Cocktail). Thirty microgram of total protein extracts were separate by 10% SDS-PAGE and blotted onto PVDF membrane. After blocking with 5% non-fat milk in TBST, the membrane was incubated with primary antibody against BCL11A, p38, p-p38, γ-globin or β-actin at 4° C. overnight.” for “overnight.”\nSeveral HDACi, such as NaB, apicidin, and TSA, have been reported to function as HbF-inducing agents. […] To realize whether the epigenetic modification of histone H4 is manipulated by S51021 or SS-2394 treatment, primary human adult erythroid cells were treated with S51021, SS-2394, HU, or NaB for 3 days, and the acetylation status of cellular histone H4 was then analyzed (FIG. 6)."}, "ε globin": {"tested_on": "ε globin", "assay": "absolute quantitative RT-PCR, proportion of ε globin mRNA", "assay_type": "cell-based", "settings": "primary human erythroid cells, at IC50, 3 days; mock 0.0%", "method": "After 3 days of drug-treatment, the total RNA was extracted by RNA Spin mini kit (Ge-Healthcare) and reverse-transcription was performed by using superscript II (Invitrogen) followed the manufactors instruction. Quantitative PCR was performed on LightCycler with using STBR green master mix followed the manufactors instruction (Roche). The absolute quantitative RT-PCR was calculated by the standard curve with supplying a known copy number of plasmids. The relative quantitative RT-PCR was normalized to the expression levels of the β-actin and compared to the mock control.\nTo evaluate the specificity of S51021, SS-2394, HU, and NaB in mediating globin genes activation, the amounts of individual P3-liked globin mRNAs were measured by absolute quantitative RT-PCR.\nThe primary human erythroid cells were treated with HU (145.9 μM), NaB (221.6 μM), S51021 (21.8 μM) or SS2394 (2.3 μM) for 3 days, and the expression levels of each globin mRNA were estimated by absolute quantitative RT-PCR analysis. The proportions of individual 3-like globin chains among the total 3-like globin mRNA are shown. Data are presented as the mean±SEM, N=3."}}, "data": [{"compound": "NC(=O)NO", "note": "[HU, hydroxyurea]", "values": [{"measurement": "phosphorylation level of p38", "setting": "p38", "result": "significantly increased"}, {"measurement": "histone deacetylase inhibitor or not (conclusion from acH4)", "setting": "histone H4", "result": "not histone deacetylase inhibitors"}, {"measurement": "global acetylation status of histone H4 (total acH4)", "setting": "histone H4", "result": "not dramatically alternated"}, {"measurement": "ε globin proportion of total β-like globin mRNA", "setting": "ε globin", "result": "0.1 ± 0.0", "unit": "%"}]}, {"compound": "CCCC(=O)[O-].[Na+]", "note": "[NaB, sodium butyrate]", "values": [{"measurement": "phosphorylation level of p38", "setting": "p38", "result": "significantly increased"}, {"measurement": "global acetylation status of histone H4 (total acH4)", "setting": "histone H4", "result": "significantly enhanced"}, {"measurement": "ε globin proportion of total β-like globin mRNA", "setting": "ε globin", "result": "0.1 ± 0.0", "unit": "%"}]}]}
